ChEMBL document CHEMBL3044656, “Influence of soil fumigation on 2,4-D and dicamba carryover in fresh market tomato” (Crop Prot, 2006)

How the values were obtained:
[1] = Half life of the compound
[2] = system: Solanum lycopersicum; assay: Phytotoxicity in Solanum lycopersicum (tomato) plant assessed as plant vigour at 1.14 kg/ha after 134 days (reference value: 82%); type: organism-based; conditions: in vivo, 3216 h
[3] = system: Solanum lycopersicum; assay: Phytotoxicity in Solanum lycopersicum (tomato) plant in fumigated soil assessed as plant vigour at 2.28 kg/ha after 134 days (reference value: 82%); type: organism-based; conditions: in vivo, other, 3216 h
[4] = system: Solanum lycopersicum; assay: Phytotoxicity in Solanum lycopersicum (tomato) plant in non-fumigated soil assessed as decrease in total fruit yield at 1.14 to 2.28 kg/ha after 174 days relative to untreated control; type: organism-based; design: scale not given: the % may be the effect or the level left; conditions: in vivo, other, 4176 h

Compound: O=C(O)COc1ccc(Cl)cc1Cl [2,4-DICHLOROPHENOXYACETIC ACID]
- half-life [1]: 10 days
- Activity [2]: 83%
- Activity [3]: 80%
- Activity [4]: 9%

Compound: COc1c(Cl)ccc(Cl)c1C(=O)O [3,6 DICHLOROMETHOXYBENZOIC ACID]
- half-life [1]: 14 days
